Test results reported in PubChem BioAssay (NCI).
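The compound was tested at five concentrations on cells cultured in 96-well plates, with a 48-hour exposure period. TGI is the concentration that stops growth completely.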

Columns and labels:
Test in all cases: DTP human tumour cell line panel, 48 h
HCC-2998 colon = test system: HCC-2998 colon
NCI/ADR-RES ovarian = test system: NCI/ADR-RES ovarian
HT29 colon = test system: HT29 colon
SF-539 CNS = test system: SF-539 CNS
NCI-H460 lung = test system: NCI-H460 lung
PC-3 prostate = test system: PC-3 prostate
HL-60(TB) leukemia = test system: HL-60(TB) leukemia
KM12 colon = test system: KM12 colon
SN12C renal = test system: SN12C renal
UACC-257 melanoma = test system: UACC-257 melanoma
SNB-75 CNS = test system: SNB-75 CNS
SF-295 CNS = test system: SF-295 CNS
SF-268 CNS = test system: SF-268 CNS
COLO 205 colon = test system: COLO 205 colon
SR leukemia = test system: SR leukemia
A549 NSCLC = test system: A549 NSCLC
NCI-H23 lung = test system: NCI-H23 lung
HS 578T breast = test system: HS 578T breast
MALME-3M melanoma = test system: MALME-3M melanoma
U251 CNS = test system: U251 CNS
HCT-116 colon = test system: HCT-116 colon
MDA-N = test system: MDA-N
CCRF-CEM leukemia = test system: CCRF-CEM leukemia
HOP-92 NSCLC = test system: HOP-92 NSCLC
SK-MEL-5 melanoma = test system: SK-MEL-5 melanoma
A498 renal = test system: A498 renal
HOP-62 NSCLC = test system: HOP-62 NSCLC
LOX IMVI melanoma = test system: LOX IMVI melanoma
K-562 leukemia = test system: K-562 leukemia
SK-MEL-2 melanoma = test system: SK-MEL-2 melanoma
HCT-15 colon = test system: HCT-15 colon
UO-31 renal = test system: UO-31 renal
SK-MEL-28 melanoma = test system: SK-MEL-28 melanoma
DU-145 prostate = test system: DU-145 prostate
MCF7 breast = test system: MCF7 breast
MDA-MB-231 breast = test system: MDA-MB-231 breast
OVCAR-5 ovarian = test system: OVCAR-5 ovarian
RPMI-8226 leukemia = test system: RPMI-8226 leukemia
M14 melanoma = test system: M14 melanoma
786-0 renal = test system: 786-0 renal
UACC-62 melanoma = test system: UACC-62 melanoma
OVCAR-4 ovarian = test system: OVCAR-4 ovarian
OVCAR-8 ovarian = test system: OVCAR-8 ovarian
T-47D breast = test system: T-47D breast
RXF 393 renal = test system: RXF 393 renal
SW-620 colon = test system: SW-620 colon
EKVX NSCLC = test system: EKVX NSCLC
SNB-19 CNS = test system: SNB-19 CNS
MDA-MB-435 = test system: MDA-MB-435
BT-549 breast = test system: BT-549 breast
NCI-H226 lung = test system: NCI-H226 lung
MOLT-4 leukemia = test system: MOLT-4 leukemia
OVCAR-3 ovarian = test system: OVCAR-3 ovarian
CAKI-1 renal = test system: CAKI-1 renal
SK-OV-3 ovarian = test system: SK-OV-3 ovarian
IGROV1 ovarian = test system: IGROV1 ovarian
NCI-H522 lung = test system: NCI-H522 lung
ACHN renal = test system: ACHN renal
TK-10 renal = test system: TK-10 renal

Measured: TGI

CCOC(=O)c1cc2c([nH]1)c(OC(C)=O)cc1c2ccn1Cc1ccccc1
> 100 µM: HCC-2998 colon | NCI/ADR-RES ovarian | HT29 colon | SF-539 CNS | NCI-H460 lung | PC-3 prostate | HL-60(TB) leukemia | KM12 colon | SN12C renal | UACC-257 melanoma | SNB-75 CNS | SF-295 CNS | SF-268 CNS | COLO 205 colon | SR leukemia | A549 NSCLC | NCI-H23 lung | HS 578T breast | MALME-3M melanoma | U251 CNS | HCT-116 colon | MDA-N | CCRF-CEM leukemia | HOP-92 NSCLC | SK-MEL-5 melanoma | A498 renal | HOP-62 NSCLC | LOX IMVI melanoma | K-562 leukemia | SK-MEL-2 melanoma | HCT-15 colon | UO-31 renal | SK-MEL-28 melanoma | DU-145 prostate | MCF7 breast | MDA-MB-231 breast | OVCAR-5 ovarian | RPMI-8226 leukemia | M14 melanoma | 786-0 renal | UACC-62 melanoma | OVCAR-4 ovarian | OVCAR-8 ovarian | T-47D breast | RXF 393 renal | SW-620 colon | EKVX NSCLC | SNB-19 CNS | MDA-MB-435 | BT-549 breast | NCI-H226 lung | MOLT-4 leukemia | OVCAR-3 ovarian | CAKI-1 renal | SK-OV-3 ovarian | IGROV1 ovarian

CC1C2CC(CC23OCC(CCl)O3)C1(C)C (configuration not stated)
> 100 µM: NCI-H522 lung | HCC-2998 colon | NCI/ADR-RES ovarian | HT29 colon | SF-539 CNS | NCI-H460 lung | PC-3 prostate | HL-60(TB) leukemia | KM12 colon | SN12C renal | UACC-257 melanoma | SNB-75 CNS | SF-295 CNS | SF-268 CNS | COLO 205 colon | SR leukemia | ACHN renal | A549 NSCLC | NCI-H23 lung | HS 578T breast | MALME-3M melanoma | HCT-116 colon | MDA-N | CCRF-CEM leukemia | HOP-92 NSCLC | SK-MEL-5 melanoma | A498 renal | HOP-62 NSCLC | LOX IMVI melanoma | K-562 leukemia | HCT-15 colon | UO-31 renal | SK-MEL-28 melanoma | DU-145 prostate | MCF7 breast | MDA-MB-231 breast | RPMI-8226 leukemia | TK-10 renal | M14 melanoma | 786-0 renal | UACC-62 melanoma | OVCAR-4 ovarian | OVCAR-8 ovarian | T-47D breast | RXF 393 renal | SW-620 colon | EKVX NSCLC | SNB-19 CNS | MDA-MB-435 | BT-549 breast | NCI-H226 lung | MOLT-4 leukemia | OVCAR-3 ovarian | CAKI-1 renal | SK-OV-3 ovarian | IGROV1 ovarian
